Test results from US20130130992A1, “DIPEPTIDE DERIVATIVE FOR THE TREATMENT OF CANCER” (ONCOTEST GMBH, priority 2010, published 2013).

Tests used:
HNXF CAL 27 = assay: Monolayer propidium iodide assay, HNXF CAL 27; type: cell-based; details: Homo sapiens, 96 h; HNXF CAL 27, Head and Neck; 4 days of treatment
Excerpt: (§1) Oncotest GmbH, Germany's proprietary tumor cell line panel comprises 40 cell lines. These cell lines were derived from 15 different tumor histotypes, each represented by 1 to 6 different cell lines. Cell lines were established from cancer of the bladder (3), colon (4), head and neck (1), lung (6), breast (3), pancreas (3), prostate (4), ovary (2), kidney (3), liver (1), stomach (1) and the uteri body (1), as well as from melanoma (3), sarcoma (2) and pleuramesothelioma (3). Out of these 40 cell lines, 24 cell lines were established at Oncotest, from patient-derived tumor xenografts. […]
(§2) Stock solutions of the compound of formula (1) (3.3 mM in DMSO) were prepared and stored in small aliquots (200 μl) at −20° C. […] Each concentration was evaluated in triplicate. […]
(§3) Cells were plated in 96-well flat-bottom microtiter plates at a cell density of 4,000 to 20,000 cells/well. […] After an incubation period of 1-2 hours at room temperature, fluorescence (FU) was measured using the Cytofluor 4000 microplate reader (excitation λ=530 nm, emission λ=620 nm) to quantify the amount of attached viable cells. […] Based on the T/C values, relative IC50 values were determined by non-linear regression (log [conc. of inhibitor] versus response (% T/C)) using the GraphPad Prism® analysis software (Prism 5 for Windows, version 5.01, GraphPad Software Inc., CA). […]

LXFL 1121L = assay: Monolayer propidium iodide assay, LXFL 1121L; type: cell-based; details: Homo sapiens, 96 h, Lung, 4 days of treatment
Excerpt: as §1, §2, §3

PAXF PANC 1 = assay: Monolayer propidium iodide assay, PAXF PANC 1; type: cell-based; details: Homo sapiens, 96 h; PAXF PANC 1, Pancreas; 4 days of treatment
Excerpt: as §1, §2, §3

PRXF LNCAP = assay: Monolayer propidium iodide assay, PRXF LNCAP; type: cell-based; details: Homo sapiens, 96 h, Prostate, 4 days of treatment
Excerpt: as §1, §2, §3

CXF 269L = assay: Monolayer propidium iodide assay, CXF 269L; type: cell-based; details: Homo sapiens, 96 h, Colon, 4 days of treatment
Excerpt: as §1, §2, §3

LXFA 289L = assay: Monolayer propidium iodide assay, LXFA 289L; type: cell-based; details: Homo sapiens, 96 h, Lung, 4 days of treatment
Excerpt: as §1, §2, §3

SXF TE671 = assay: Monolayer propidium iodide assay, SXF TE671; type: cell-based; details: Homo sapiens, TE-671, 96 h; SXF TE671, Sarcoma; 4 days of treatment
Excerpt: as §1, §2, §3

MAXF MCF 7 = assay: Monolayer propidium iodide assay, MAXF MCF 7; type: cell-based; details: Homo sapiens, MCF7, 96 h; MAXF MCF 7, Mammary; 4 days of treatment
Excerpt: as §1, §2, §3

PAXF 1657L = assay: Monolayer propidium iodide assay, PAXF 1657L; type: cell-based; details: Homo sapiens, 96 h, Pancreas, 4 days of treatment
Excerpt: as §1, §2, §3

MEXF 1341L = assay: Monolayer propidium iodide assay, MEXF 1341L; type: cell-based; details: Homo sapiens, 96 h, Melanoma, 4 days of treatment
Excerpt: as §1, §2, §3

PRXF DU 145 = assay: Monolayer propidium iodide assay, PRXF DU 145; type: cell-based; details: Homo sapiens, 96 h; PRXF DU 145, Prostate; 4 days of treatment
Excerpt: as §1, §2, §3

SXF SAOS2 = assay: Monolayer propidium iodide assay, SXF SAOS2; type: cell-based; details: Homo sapiens, SAOS-2, 96 h; SXF SAOS2, Sarcoma; 4 days of treatment
Excerpt: as §1, §2, §3

[1] = Solubility (physical properties); type: physicochemical
BXF 1352L = assay: Monolayer propidium iodide assay, BXF 1352L; type: cell-based; details: Homo sapiens, 96 h, Bladder, 4 days of treatment
Excerpt: as §1, §2, §3

CXF RKO = assay: Monolayer propidium iodide assay, CXF RKO; type: cell-based; details: Homo sapiens, 96 h, Colon, 4 days of treatment
Excerpt: as §1, §2, §3

LXFL 529L = assay: Monolayer propidium iodide assay, LXFL 529L; type: cell-based; details: Homo sapiens, 96 h, Lung, 4 days of treatment
Excerpt: as §1, §2, §3

RXF 393NL = assay: Monolayer propidium iodide assay, RXF 393NL; type: cell-based; details: Homo sapiens, 96 h, Renal, 4 days of treatment
Excerpt: as §1, §2, §3

PAXF 546L = assay: Monolayer propidium iodide assay, PAXF 546L; type: cell-based; details: Homo sapiens, 96 h, Pancreas, 4 days of treatment
Excerpt: as §1, §2, §3

RXF 486L = assay: Monolayer propidium iodide assay, RXF 486L; type: cell-based; details: Homo sapiens, 96 h, Renal, 4 days of treatment
Excerpt: as §1, §2, §3

BXF T 24 = assay: Monolayer propidium iodide assay, BXF T 24; type: cell-based; details: Homo sapiens, 96 h; BXF T 24, Bladder; 4 days of treatment
Excerpt: as §1, §2, §3

LXFA 526L = assay: Monolayer propidium iodide assay, LXFA 526L; type: cell-based; details: Homo sapiens, 96 h, Lung, 4 days of treatment
Excerpt: as §1, §2, §3

PRXF PC3M = assay: Monolayer propidium iodide assay, PRXF PC3M; type: cell-based; details: Homo sapiens, PC-3M, 96 h, Prostate, 4 days of treatment
Excerpt: as §1, §2, §3

LXFA 629L = assay: Monolayer propidium iodide assay, LXFA 629L; type: cell-based; details: Homo sapiens, 96 h, Lung, 4 days of treatment
Excerpt: as §1, §2, §3

LXFL H 460 = assay: Monolayer propidium iodide assay, LXFL H 460; type: cell-based; details: Homo sapiens, NCI-H460, 96 h; LXFL H 460, Lung; 4 days of treatment
Excerpt: as §1, §2, §3

MAXF 401NL = assay: Monolayer propidium iodide assay, MAXF 401NL; type: cell-based; details: Homo sapiens, 96 h, Mammary, 4 days of treatment
Excerpt: as §1, §2, §3

OVXF OVCAR3 = assay: Monolayer propidium iodide assay, OVXF OVCAR3; type: cell-based; details: Homo sapiens, OVCAR-3, 96 h; OVXF OVCAR3, Ovarian; 4 days of treatment
Excerpt: as §1, §2, §3

PXF 698L = assay: Monolayer propidium iodide assay, PXF 698L; type: cell-based; details: Homo sapiens, 96 h, Pleuramesothelioma, 4 days of treatment
Excerpt: as §1, §2, §3

CCCC1CCCCCC(O)CC(=O)NC2CSSCC(NC2=O)C(=O)O1 (centres unmarked) [compound of formula (1)]
IC50 (HNXF CAL 27): 0.039 µM | IC50 (LXFL 1121L): 0.047 µM | IC50 (PAXF PANC 1): 0.059 µM | IC50 (PRXF LNCAP): 0.122 µM | IC50 (CXF 269L): 0.055 µM | IC50 (LXFA 289L): 0.041 µM | IC50 (SXF TE671): 0.082 µM | IC50 (MAXF MCF 7): 0.276 µM | IC50 (PAXF 1657L): 0.039 µM | IC50 (MEXF 1341L): 0.102 µM | IC50 (PRXF DU 145): 0.052 µM | IC50 (SXF SAOS2): 0.185 µM | Solubility ([1]; in chloroform and methanol): sparingly soluble in chloroform and methanol; and | Solubility ([1]; in pyridine, acetic acid, dimethyl sulfoxide): Soluble in pyridine, acetic acid, dimethyl sulfoxide; | Solubility ([1]; in water): insoluble in water | IC50 (BXF 1352L): 0.103 µM | IC50 (CXF RKO): 0.074 µM | IC50 (LXFL 529L): 0.05 µM | IC50 (RXF 393NL): 0.323 µM | IC50 (PAXF 546L): 0.016 µM | IC50 (RXF 486L): 0.159 µM | IC50 (BXF T 24): 0.05 µM | IC50 (LXFA 526L): 0.021 µM | IC50 (PRXF PC3M): 0.047 µM | IC50 (LXFA 629L): 0.04 µM | IC50 (LXFL H 460): 0.146 µM | IC50 (MAXF 401NL): 0.064 µM | IC50 (OVXF OVCAR3): 0.195 µM | IC50 (PXF 698L): 0.178 µM
